Experimental findings from ChEMBL document CHEMBL1201862, “PubChem BioAssay data set” (2004) are described below.

Holding throughout (assay): inhibition of tumour cell growth, NCI panel, 48 h
The test system of assay [1] is A498.
The test system of assay [2] is CCRF-CEM.
Assay [3] concerns EKVX.
Assay [4] concerns HCT-116.
For assay [5], the system named is IGROV-1.
In assay [6] the test system is KM12.
Assay [7] deals with M19-MEL.
Assay [8] deals with Malme-3M.
Assay [9] deals with RPMI-8226.
In assay [10] the test system is SF-268.
For assay [11], the system named is SF-539.
The test system of assay [12] is SK-MEL-28.
In assay [13] the test system is SK-MEL-2.
Assay [14] has as its system SN12C.
Assay [15] relates to SW-620.
Assay [16] relates to ACHN.
In assay [17] the test system is HOP-62.
The test system of assay [18] is LOX IMVI.
Assay [19] relates to DU-145.
Assay [20] relates to MDA-MB-435.

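Cells were grown in 96-well plates and exposed to each compound for 48 hours at five concentrations; endpoints were interpolated linearly between bracketing concentrations, or set to the highest concentration if not reached. GI50: concentration for 50% inhibition of growth.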 Active and inactive are the calls of the source. No stated cut-off is given here; in the data, active = GI50 up to about 1.1 µM and inactive = higher.

For the compound `Cn1c(N)c(-c2c3ccccc3nc3ccccc23)c(=O)n(C)c1=O`, the GI50 in assay [1], in assay [2], in [3], in assay [4], in [5] and in assay [6] was > 100 µM (inactive) each time. Further, the GI50 in assay [7], in assay [8], in [9], in [10], in assay [11] and in assay [12] was > 100 µM (inactive) each time. Moreover, the GI50 in [13], in assay [14] and in assay [15] was > 100 µM (inactive) throughout.
For the compound `O=C(c1ccc2c3c(ccc(C(=O)C(F)(F)F)c13)CC2)C(F)(F)F`, the GI50 in assay [1] is 47.9 µM (inactive); in assay [16] it was 58.9 µM (inactive); in [3], 81.7 µM (inactive); in assay [4], 69.2 µM (inactive); in [17], 72.1 µM (inactive); in [5], 74 µM (inactive). Further, the GI50 in assay [6] was 44.1 µM (inactive); in [18], 55.7 µM (inactive); in assay [7], 35.5 µM (inactive); in [8], 52.4 µM (inactive); in assay [10], 51.3 µM (inactive); in assay [11], > 100 µM (inactive). The GI50 in assay [12] is 62.2 µM (inactive); in assay [13] it was 97.5 µM (inactive); in assay [14], 92.9 µM (inactive); in [15], > 100 µM (inactive).
`CN(C)CCNC(=O)c1cccc2c1nc(-c1ccccc1)c1ccccc12`: the GI50 in [1] was 0.91 µM (active); in assay [16], 2.88 µM (inactive); in [2], 1.61 µM (inactive); in assay [3], 12.9 µM (inactive); in [4], 2.69 µM (inactive); in [17], 4.27 µM (inactive). Moreover, the GI50 was 3.16 µM (inactive) in assay [5]; 6.19 µM (inactive) in assay [6]; 1.47 µM (inactive) in assay [18]; 5.2 µM (inactive) in assay [7]; 5.79 µM (inactive) in assay [10]; 2.19 µM (inactive) in [11]. Also, the GI50 in assay [12] was 9.1 µM (inactive); in [13], 11.1 µM (inactive); in assay [14] it was 3.01 µM (inactive); in assay [15] it was 2.4 µM (inactive).
For `COc1ccc(CNc2nc3ccccc3nc2-c2cccs2)cc1OC`, the GI50 in assay [16] was 23.1 µM (inactive); in assay [2], 33.3 µM (inactive); in [3], 59 µM (inactive); in assay [4] it was 33.5 µM (inactive); in assay [17], > 100 µM (inactive); in assay [7], 33.1 µM (inactive). Also, the GI50 in assay [8] was 45.1 µM (inactive); in assay [9] it was 72.3 µM (inactive); in [10], 47.4 µM (inactive); in assay [11], 41 µM (inactive); in assay [12], 84.5 µM (inactive); in [13], 63.7 µM (inactive). Besides, the GI50 in assay [14] was 61.5 µM (inactive); in assay [15] it was 93.3 µM (inactive).
On to `O=C(O)c1cc(-c2ccccc2O)nc2ccccc12`, for which the GI50 in assay [1], in [16], in assay [2], in assay [3], in [4] and in [17] was > 100 µM (inactive) in each case. For the same compound, the GI50 in assay [5], in [6], in assay [7], in [8], in assay [9] and in assay [10] was > 100 µM (inactive) throughout. In addition, the GI50 in assay [11], in assay [12], in assay [13], in assay [14] and in assay [15] was > 100 µM (inactive) throughout.
Consider `CC1=C2CCCC2=C/C(=N/Nc2ccc([N+](=O)[O-])cc2[N+](=O)[O-])CC1`, for which the GI50 in [16], in [2], in [3], in assay [4], in [17] and in assay [5] was > 100 µM (inactive) in each case. Moreover, the GI50 in [6], in assay [18], in assay [7], in [8], in [9] and in assay [10] was > 100 µM (inactive) in each case. Further, the GI50 in assay [11] is > 100 µM (inactive); in assay [12], > 100 µM (inactive); in assay [13] it was 27.9 µM (inactive); in [14] it was > 100 µM (inactive); in assay [15], > 100 µM (inactive).
`CCOC(=O)CC1NC(=O)CS1` (configuration not stated): the GI50 in assay [1] is > 100 µM (inactive); in assay [16], > 100 µM (inactive); in assay [2], > 100 µM (inactive); in assay [3] it was > 100 µM (inactive); in [4] it was 21.7 µM (inactive); in assay [17], > 100 µM (inactive). The GI50 was > 100 µM (inactive) in assay [5]; > 100 µM (inactive) in assay [6]; > 100 µM (inactive) in [7]; > 100 µM (inactive) in [8]; 26.8 µM (inactive) in assay [9]; 49.7 µM (inactive) in [10]. In addition, the GI50 in assay [11] was > 100 µM (inactive); in assay [12] it was > 100 µM (inactive); in [14], 36.6 µM (inactive); in [15] it was 15.9 µM (inactive).
Turning to `CCOC(=O)c1c(N2CCCC2)ncn(C)c1=S`, the GI50 in [1], in [16], in assay [2], in assay [19], in assay [3] and in assay [4] was > 100 µM (inactive) throughout. For the same compound, the GI50 in assay [17], in assay [5], in assay [6], in [18], in [20] and in assay [8] was > 100 µM (inactive) in each case. Also, the GI50 in [9], in assay [10], in assay [11], in assay [12], in assay [13] and in assay [14] was > 100 µM (inactive) throughout. Moreover, the GI50 in [15] was > 100 µM (inactive).
Regarding `O=C(c1ccccc1)C(c1ccccc1)C1(O)C(=O)Nc2ccccc21` (configuration not stated), the GI50 in assay [1], in [16], in assay [2], in assay [3], in assay [4] and in assay [17] was > 100 µM (inactive) in each case. The GI50 in assay [5], in assay [18], in assay [7], in assay [8], in assay [9] and in assay [10] was > 100 µM (inactive) throughout. Besides, the GI50 in assay [11], in assay [12], in assay [13], in [14] and in assay [15] was > 100 µM (inactive) each time.
`Cc1ccc(C(=O)NC(C)C)cc1/N=N/N(C)C`: the GI50 in assay [16], in [3], in assay [4], in assay [17], in [5] and in [6] was > 100 µM (inactive) throughout. For the same compound, the GI50 in assay [18], in assay [7], in assay [10], in assay [11], in assay [12] and in assay [13] was > 100 µM (inactive) throughout. Further, the GI50 in [14] and in [15] was > 100 µM (inactive) each time.
Consider `Cc1nnc2n1N=C(c1ccc(-c3ccc([N+](=O)[O-])cc3)o1)CS2`, for which the GI50 in [16], in assay [4], in assay [17], in assay [5], in [6] and in [18] was > 100 µM (inactive) each time. The GI50 in assay [7], in assay [8], in assay [9], in assay [10], in assay [11] and in assay [12] was > 100 µM (inactive) each time. Moreover, the GI50 in [13], in assay [14] and in [15] was > 100 µM (inactive) each time.
`CC12CC[C@@H](C(C)(C)O)C1[C@@H](O)CC1(C)C2CCC2[C@@]3(C)CC[C@H](O)C(C)(C)C3C(O)C[C@]21C` (some centres not stated): the GI50 in [1] is 13.5 µM (inactive); in [16], 13.1 µM (inactive); in [2], 11.3 µM (inactive); in assay [3], 13.2 µM (inactive); in assay [4] it was 11.4 µM (inactive); in [5], 17.7 µM (inactive). The GI50 was 14.6 µM (inactive) in [6]; 24.3 µM (inactive) in [7]; 13.8 µM (inactive) in [8]; 21.3 µM (inactive) in assay [9]; 14.9 µM (inactive) in assay [10]; 15.8 µM (inactive) in assay [11]. Also, the GI50 in [12] is 16.8 µM (inactive); in assay [13] it was 18.7 µM (inactive); in assay [14], 13.4 µM (inactive); in assay [15], 18 µM (inactive).
